Where two headings read alike, the source gives them in different places.
Tests used:
[1] = molecular target: T1, Recombinant KAT6A/MOZ (488-778) protein (Homo sapiens, UniProt Q92794); experiment: Kat6a AlphaLISA Inhibition Screening Assay; assay type: biochemical
T1 construct: Recombinant KAT6A/MOZ (488-778) protein (Active motif, Catalog #81223); purchased Active Motif 81223
In short: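 Recombinant KAT6A (488-778), 25 nM, was preincubated with compound (10-point dose response) for 60 or 10 min. It then reacted 120 min at room temperature with 200 nM biotin-H3(1-21) peptide and 400 nM acetyl-CoA, pH 8.0, with 330 nM TSA present. Acetylation was detected by AlphaLISA (anti-acetyl-lysine acceptor, streptavidin donor beads).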

ZR-75-1 = experiment: In Vitro Cancer Cell Assay (cell viability, Cell Titer Glow, 10 days); assay type: cell-based; details: Homo sapiens; ZR-75-1 cells; Table 2
Description: ZR-75-1 and T47D are breast cancer cell lines containing high KAT6A protein expression. Proliferation of these cell lines are inhibited upon treatment with a KAT6A inhibitor. Cell line MCF7 is used as a negative control. MCF7 cells have a low KAT6A protein expression and are not growth inhibited upon treatment with KAT6A inhibitors. WM-1119 is used as a positive control.
1500 cells are seeded per well and incubated overnight at 37° C. and 5% CO2. Cells are treated after 24 hours with a compound (stock solution, 10 mM in DMSO) with 9-10 dilutions and a final DMSO concentration of 0.5%. […] Test compounds are tested like WM-1119. Plates are incubated at 37° C. and 5% CO2 for 10 days. Media is replenished after every alternate day. At day 10, Cell Titer Glow is added to the wells and luminescence is recorded after 10 min incubation. Data are normalized to 100% with DMSO control and subtracting media blank. Cell viability is of the test compounds is measured.
The above procedure can be followed for determining activity in additional cell lines, for example, ZR-75-1, T47D, CHAGOK1 and other cell lines that have high expression of KAT6A. The number of cells used will be optimized based on growth rate of the individual cell lines.

[2] = 60′ pre-incubation, Table 2, read-out: Kat6A biochemical assay: IC50
[3] = 10′ pre-incubation, Table 3, read-out: Kat6A Biochemical assay: IC50
[4] = 60′ pre-incubation, Table 3, read-out: Kat6A Biochemical assay: IC50

T1 sequence (Q92794 488-778): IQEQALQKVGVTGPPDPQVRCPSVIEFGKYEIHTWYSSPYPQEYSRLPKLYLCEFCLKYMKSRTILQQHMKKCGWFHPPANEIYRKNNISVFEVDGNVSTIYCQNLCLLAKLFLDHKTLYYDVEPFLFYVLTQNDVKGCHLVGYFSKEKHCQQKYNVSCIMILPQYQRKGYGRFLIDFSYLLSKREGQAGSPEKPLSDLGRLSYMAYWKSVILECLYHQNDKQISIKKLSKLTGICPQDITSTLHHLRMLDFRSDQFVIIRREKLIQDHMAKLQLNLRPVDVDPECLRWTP

Compound	IC50 [1, 2] [µM]	EC50 (ZR-75-1) [µM]	also measured
C=CC(=O)NCc1ccn(Cc2cc(OC)c3c(NS(=O)(=O)Cc4ccccc4)noc3c2)n1 [Synthetic Example 20, N-((1-((4-methoxy-3-((phenylmethyl)sulfonamido)benzo[d]isoxazol-6-yl)methyl)-1H-pyrazol-3-yl)methyl)acrylamide]	≤ 10	> 10	–
C=CS(=O)(=O)NCc1ccn(Cc2cc(OC)c3c(NS(=O)(=O)Cc4ccccc4)noc3c2)n1 [Synthetic Example 21, N-((1-((4-methoxy-3-((phenylmethyl)sulfonamido)benzo[d]isoxazol-6-yl)methyl)-1H-pyrazol-3-yl)methyl)ethenesulfonamide]	≤ 10	> 10	–
C#CC(=O)NCc1cnn(Cc2cc(OC)c3c(NS(=O)(=O)c4ccccc4C(=O)O)noc3c2)c1 [Synthetic Example 37, 2-(N-(4-methoxy-6-((4-(propiolamidomethyl)-1H-pyrazol-1-yl)methyl)benzo[d]isoxazol-3-yl)sulfamoyl)benzoic acid]	≤ 10	≤ 10	–
C#CC(=O)N1Cc2cn(Cc3cc(OC)c4c(NS(=O)(=O)c5c(OC)cccc5OC)noc4c3)nc2C1 [Synthetic Example 25B, 2,6-dimethoxy-N-(4-methoxy-6-((5-propioloyl-5,6-dihydropyrrolo[3,4-c]pyrazol-2(4H)-yl)methyl)benzo[d]isoxazol-3-yl)benzenesulfonamide]	≤ 10	> 10	–
C#CC(=O)N1Cc2cnn(Cc3cc(OC)c4c(NS(=O)(=O)CC5CCCCC5)noc4c3)c2C1 [Synthetic Example 30A, 1-cyclohexyl-N-(4-methoxy-6-((5-propioloyl-5,6-dihydropyrrolo[3,4-c]pyrazol-1(4H)-yl)methyl)benzo[d]isoxazol-3-yl)methanesulfonamide]	≤ 10	≤ 10	–
C=CS(=O)(=O)NCc1cnn(Cc2cc(OC)c3c(NS(=O)(=O)c4ccccc4OC)noc3c2)c1 [Synthetic Example 32, 2-methoxy-N-(4-methoxy-6-((4-(vinylsulfonamidomethyl)-1H-pyrazol-1-yl)methyl)benzo[d]isoxazol-3-yl)benzenesulfonamide]	≤ 10	≤ 10	–
C=CS(=O)(=O)NCc1cnn(Cc2cc(OC)c3c(NS(=O)(=O)c4c(OC)cccc4OC)noc3c2)c1 [Synthetic Example 33, 2,6-dimethoxy-N-(4-methoxy-6-((4-(vinylsulfonamidomethyl)-1H-pyrazol-1-yl)methyl)benzo[d]isoxazol-3-yl)benzenesulfonamide]	≤ 10	≤ 10	–
C#CC(=O)N1Cc2cnn(Cc3cc(OC)c4c(NS(=O)(=O)c5c(OC)cccc5OC)noc4c3)c2C1 [Synthetic Example 25A, 2,6-dimethoxy-N-(4-methoxy-6-((5-propioloyl-5,6-dihydropyrrolo[3,4-c]pyrazol-1(4H)-yl)methyl)benzo[d]isoxazol-3-yl)benzenesulfonamide]	≤ 10	≤ 10	–
C#CC(=O)NCc1cnn(Cc2cc(OC)c3c(NS(=O)(=O)c4ccccc4OC)noc3c2)c1 [Synthetic Example 31, N-((1-((4-methoxy-3-((2-methoxyphenyl)sulfonamido)benzo[d]isoxazol-6-yl)methyl)-1H-pyrazol-4-yl)methyl) propiolamide]	≤ 10	≤ 10	–
COc1cc(Cn2cc(C#N)cn2)cc2onc(NS(=O)(=O)CC3CCCCC3)c12 [compound 126, N-(6-((4-cyano-1H-pyrazol-1-yl)methyl)-4-methoxybenzo[d]isoxazol-3-yl)-1-cyclohexylmethanesulfonamide]	–	–	IC50 [1, 3]: ≤ 10 µM
CCS(=O)(=O)NCc1cnn(Cc2cc(OC)c3c(NS(=O)(=O)c4c(OC)cccc4OC)noc3c2)c1 [compound 108]	–	–	IC50 [1, 4]: ≤ 10 µM
COc1ccccc1S(=O)(=O)Nc1noc2cc(Cn3ncc4c3CN(S(=O)(=O)c3c(F)c(F)c(F)c(F)c3F)C4)cc(OC)c12 [compound 82]	–	–	IC50 [1, 4]: ≤ 10 µM
C=CS(=O)(=O)NCc1ccn(Cc2cc(OC)c3c(NS(=O)(=O)c4ccccc4OC)noc3c2)n1 [Synthetic Example 22, 2-methoxy-N-(4-methoxy-6-((3-(vinylsulfonamidomethyl)-1H-pyrazol-1-yl)methyl)benzo[d]isoxazol-3-yl)benzenesulfonamide]	≤ 10	–	–
COc1cc(Cn2cc(CN)cn2)cc2onc(NS(=O)(=O)CC3CCCCC3)c12 [compound 130]	–	–	IC50 [1, 3]: ≤ 10 µM
C#CC(=O)N1CCN(c2cccc(-c3cc(OC)c4c(NS(=O)(=O)c5cc(CC)ccc5OC)noc4c3)c2)CC1 [compound 98, 5-ethyl-2-methoxy-N-(4-methoxy-6-(3-(4-propioloylpiperazin-1-yl)phenyl)benzo[d]isoxazol-3-yl) benzenesulfonamide]	–	–	IC50 [1, 4]: ≤ 10 µM
COc1ccccc1S(=O)(=O)Nc1noc2cc(Cn3cc(CNS(=O)(=O)c4ccc(F)cc4)cn3)cc(OC)c12 [compound 78, N-(6-((4-(((4-fluorophenyl)sulfonamido)methyl)-1H-pyrazol-1-yl)methyl)-4-methoxybenzo[d]isoxazol-3-yl)-2-methoxybenzenesulfonamide]	–	–	IC50 [1, 4]: ≤ 10 µM
C#CC(=O)N1CCN(c2nc(-c3cc(OC)c4c(NS(=O)(=O)c5c(OC)cccc5OC)noc4c3)cs2)CC1 [compound 97, 2,6-dimethoxy-N-(4-methoxy-6-(2-(4-propioloylpiperazin-1-yl)thiazol-4-yl)benzo[d]isoxazol-3-yl)benzenesulfonamide]	–	–	IC50 [1, 4]: ≤ 10 µM
C#CC(=O)N1CCN(c2cccc(-c3cc(OC)c4c(NS(=O)(=O)c5c(OC)cccc5OC)noc4n3)c2)CC1 [compound 113, 2,6-dimethoxy-N-(4-methoxy-6-(3-(4-propioloylpiperazin-1-yl)phenyl)isoxazolo[5,4-b]pyridin-3-yl)benzenesulfonamide]	–	–	IC50 [1, 4]: ≤ 10 µM
C#CC(=O)N1CCc2c(cnn2Cc2cc(OC)c3c(NS(=O)(=O)c4cc(CC)ccc4OC)noc3c2)C1 [105a, 5-ethyl-2-methoxy-N-(4-methoxy-6-((5-propioloyl-4,5,6,7-tetrahydro-1H-pyrazolo[4,3-c]pyridin-1-yl)methyl)benzo[d]isoxazol-3-yl)benzenesulfonamide]	–	–	IC50 [1, 4]: ≤ 10 µM
C#CC(=O)NCc1ccnc(-c2cc(C)cc(C(=O)NNS(=O)(=O)c3ccccc3F)c2)c1 [compound 13]	–	–	IC50 ([1]; 10′ pre-incubation, Table 2, read-out: Kat6A biochemical assay: IC50): ≤ 10 µM
COc1cc(Cn2cccn2)cc2c1c(NS(=O)(=O)CC1CCCCC1)nn2C [compound 121, N-(6-((1H-pyrazol-1-yl)methyl)-4-methoxy-1-methyl-1H-indazol-3-yl)-1-cyclohexylmethanesulfonamide]	–	–	IC50 [1, 3]: 10 to 20 µM

Continued, in another order:

IC50 [1, 2] [µM]	EC50 (ZR-75-1) [µM]	Compound	also measured
≤ 10	≤ 10	C#CC(=O)NCc1cnn(Cc2cc(OC3CC3)c3c(NS(=O)(=O)c4ccccc4OC)noc3c2)c1 [Synthetic Example 43, N-((1-((4-cyclopropoxy-3-((2-methoxyphenyl)sulfonamido)benzo[d]isoxazol-6-yl)methyl)-1H-pyrazol-4-yl)methyl)propiolamide]	–
≤ 10	≤ 10	C=CS(=O)(=O)NCc1cnn(Cc2cc(OC)c3c(NS(=O)(=O)CC4CCCCC4)noc3c2)c1 [compound 6]	–
≤ 10	–	C=CS(=O)(=O)N1CCC(c2ccnc(-c3cc(C)cc(C(=O)NNS(=O)(=O)c4ccccc4F)c3)c2)CC1 [Synthetic Example 42, 2-fluoro-N′-(3-methyl-5-(4-(1-(vinylsulfonyl)piperidin-4-yl)pyridin-2-yl)benzoyl)benzenesulfonohydrazide]	–
≤ 10	–	C#CC(=O)NCc1cnn(Cc2cc(OC)c3c(NS(=O)(=O)c4cc(CC)ccc4OC)noc3c2)c1 [compound 69, N-((1-((3-((5-ethyl-2-methoxyphenyl)sulfonamido)-4-methoxybenzo[d]isoxazol-6-yl)methyl)-1H-pyrazol-4-yl)methyl) propiolamide]	–
≤ 10	–	CC#CC(=O)NCc1cnn(Cc2cc(OC)c3c(NS(=O)(=O)c4ccccc4OC)noc3c2)c1 [Synthetic Example 57, N-[[1-[[4-methoxy-3-[(2-methoxyphenyl)sulfonylamino]-1,2-benzoxazol-6-yl]methyl]pyrazol-4-yl]methyl] but-2-ynamide]	–
≤ 10	–	C#CC(=O)N(C)Cc1cnn(Cc2cc(OC)c3c(NS(=O)(=O)c4ccccc4OC)noc3c2)c1 [Synthetic Example 45, N-((1-((4-methoxy-3-((2-methoxyphenyl)sulfonamido)benzo[d]isoxazol-6-yl)methyl)-1H-pyrazol-4-yl)methyl)-N-methylpropiolamide]	–
≤ 10	–	C#CC(=O)NCc1cnn(Cc2cc(OC)c3c(NS(=O)(=O)c4cccc(C(=O)NC)c4)noc3c2)c1 [Synthetic Example 52, 3-(N-(4-methoxy-6-((4-(propiolamidomethyl)-1H-pyrazol-1-yl)methyl)benzo[d]isoxazol-3-yl)sulfonyl)-N-methylbenzamide]	–
